≈ marks a conversion by molar mass, not a printed value. Where “and” joins values, the source holds several entries; their conditions need not be identical. Equal entries are not always repeated.
Experiments:
HEK293T = assay: Cytotoxicity assay (MTT); assay type: cell-based, human; details: for MTT data (raw readout): HEK293T; for IC50: 24 h, MTT
In short: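 HEK293T cells, maintained at 37 °C and 7% CO2 in Dulbecco’s modified Eagle medium with GlutaMax, antibiotics and serum, were plated in clear 96-well plates in 100 µl medium containing 1% fetal bovine serum and left 24 h to attach. After 24 h compound exposure, MTT (0.40 mg ml^−1) was added for 2 h. Formazan was dissolved in 100 µl DMSO and absorbance measured at 570 nm. Background-corrected IC50 values came from variable-slope non-linear fits.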

HepG2 = assay: Cytotoxicity assay (MTT); assay type: cell-based, human; details: for IC50: MTT, 24 h
K. pneumoniae ATCC 29665 = assay: MIC by broth microdilution; assay type: cell-based, Klebsiella pneumoniae; details: Klebsiella pneumoniae, ATCC29665, read-out: MIC K. pneumoniae ATCC 29665
In short: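 Exponential-phase cultures (OD600 0.5, 37 °C aerobic), diluted 100-fold in CAMHB, were added to twofold compound dilution series. Keio strains grown with 50 µg ml^−1 kanamycin. Plates incubated overnight at 37 °C, shaking at 600 r.p.m.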

[1] = target: T1, E. coli GyrA S172A/GyrB gyrase (Escherichia coli, UniProt P0AES4, S172A); assay: Gyrase supercoiling inhibition, GyrA S172A variant; assay type: biochemical
T1 construct: represents the first full-length E. coli gyrase structure in complex with an intact DNA molecule; 10xHis; 2xStrep (Twin-Strep); made in house
Procedure: Of this stock solution, 27 µl was aliquoted for each reaction in 1.5 ml Eppendorf tubes and supplemented with 0.6 µl of the appropriate compound dilution or corresponding solvent with a final DMSO concentration of 2%. The reactions were started with 3 µl of enzyme (1 U for WT gyrase retrieved from Inspiralis Limited or 25–30 nM gyrase variants purified in house) in dilution buffer (50 mM Tris–HCl (pH 7.5), 100 mM KCl, 2 mM DTT, 1 mM EDTA and 50% (wt/vol) glycerol) for a final volume of 30 µl. Reactions were run at 37 °C for 30 min and stopped with the addition of 30 µl STEB buffer (40% (wt/vol) sucrose, 100 mM Tris–HCl pH 8, 100 mM EDTA, 0.5 mg ml^−1 bromophenol blue) and 30 µl of a chloroform:isoamyl alcohol solution (24:1 vol/vol). After brief vortexing and centrifugation at 2,300g for 1 min, 20 µl of the aqueous phase was loaded onto 1% (wt/vol) agarose gels in TAE (Tris–acetate […]) gel. The gels were run at 85 V for 2 h followed by staining (15 min) in 1 µg ml^−1 ethidium bromide and destaining (5–10 min) in water. DNA was visualized (602/50, UV Trans, auto optimal exposure) with a ChemiDoc MP (Bio-Rad Laboratories Inc., equipped with ImageLab Touch Software v2.0.0.27) and the percentage of supercoiled DNA relative to the total amount material per lane was determined with ImageLab 6.1 software (Bio-Rad Laboratories Inc.) or ImageJ[47] software. […]

O=S(=O)(NC[C@@H]1CC[C@H](c2ccc(-c3cccnc3)cc2)N1)c1cccc2cnccc12 [LEI-800]
MTT data (raw readout) (HEK293T; 0.023 uM, experiment n = 1, technical triplicates, listed as LEI-800 (102)): 1.514 and 1.430 and 1.503
MTT data (raw readout) (HEK293T; 0.023 uM, experiment n = 2, technical triplicates, listed as LEI-800 (102)): 0.881 and 0.910 and 1.010
MTT data (raw readout) (HEK293T; 0.068 uM, experiment n = 1, technical triplicates, listed as LEI-800 (102)): 1.213 and 1.245 and 1.353
MTT data (raw readout) (HEK293T; 0.068 uM, experiment n = 2, technical triplicates, listed as LEI-800 (102)): 0.864 and 0.913 and 1.008
MTT data (raw readout) (HEK293T; 0.21 uM, experiment n = 1, technical triplicates, listed as LEI-800 (102)): 1.179 and 1.313 and 1.432
MTT data (raw readout) (HEK293T; 0.21 uM, experiment n = 2, technical triplicates, listed as LEI-800 (102)): 0.911 and 0.971 and 1.136
MTT data (raw readout) (HEK293T; 0.62 uM, experiment n = 1, technical triplicates, listed as LEI-800 (102)): 1.153 and 1.305 and 1.537
MTT data (raw readout) (HEK293T; 0.62 uM, experiment n = 2, technical triplicates, listed as LEI-800 (102)): 0.849 and 0.899 and 1.012
MTT data (raw readout) (HEK293T; 1.85 uM, experiment n = 1, technical triplicates, listed as LEI-800 (102)): 1.133 and 1.157 and 1.398
MTT data (raw readout) (HEK293T; 1.85 uM, experiment n = 2, technical triplicates, listed as LEI-800 (102)): 0.878 and 0.935 and 1.030
IC50 (HEK293T; Homo sapiens, HEK-293T): 65 µM
IC50 (HEK293T; listed as LEI-800 (102)): > 50 µM
MTT data (raw readout) (HepG2; HepG2, 0.023 uM, experiment n = 1, technical triplicates, listed as LEI-800 (102)): 0.404 and 0.388 and 0.378
MTT data (raw readout) (HepG2; HepG2, 0.023 uM, experiment n = 2, technical triplicates, listed as LEI-800 (102)): 0.268 and 0.286 and 0.353
MTT data (raw readout) (HepG2; HepG2, 0.068 uM, experiment n = 1, technical triplicates, listed as LEI-800 (102)): 0.391 and 0.379 and 0.435
MTT data (raw readout) (HepG2; HepG2, 0.068 uM, experiment n = 2, technical triplicates, listed as LEI-800 (102)): 0.250 and 0.293 and 0.379
MTT data (raw readout) (HepG2; HepG2, 0.21 uM, experiment n = 1, technical triplicates, listed as LEI-800 (102)): 0.377 and 0.445 and 0.431
MTT data (raw readout) (HepG2; HepG2, 0.21 uM, experiment n = 2, technical triplicates, listed as LEI-800 (102)): 0.243 and 0.281 and 0.327
MTT data (raw readout) (HepG2; HepG2, 0.62 uM, experiment n = 1, technical triplicates, listed as LEI-800 (102)): 0.371 and 0.373 and 0.384
MTT data (raw readout) (HepG2; HepG2, 0.62 uM, experiment n = 2, technical triplicates, listed as LEI-800 (102)): 0.248 and 0.278 and 0.343
MTT data (raw readout) (HepG2; HepG2, 1.85 uM, experiment n = 1, technical triplicates, listed as LEI-800 (102)): 0.402 and 0.403 and 0.424
MTT data (raw readout) (HepG2; HepG2, 1.85 uM, experiment n = 2, technical triplicates, listed as LEI-800 (102)): 0.281 and 0.293 and 0.337
IC50 (HepG2; Homo sapiens, HepG2, 24 h): > 100 µM
IC50 (HepG2; listed as LEI-800 (102)): > 50 µM
MIC (K. pneumoniae ATCC 29665): 6.25 µM (≈ 2.78 µg/mL)
IC50 [1]: 0.086 µM
